Converted amounts (≈) assume the structure as drawn.
How the values were obtained:
Format in all cases: cell-based
[1] = tested on: Endothelial cell line HUVEC; experiment: Inhibitory activity on cells, CellTiter-Glo viability, HUVEC; details: Homo sapiens, 72 hours treatment
Experimental: (§1) HUVEC (purchased from Allcells Biological Technology (Shanghai) Co., Ltd.); UM-UC-3 (ATCC); LNCaP (ATCC); RM-1 (purchased from Nanjing Cobioer Biosciences Co., Ltd.) (1) On the first day, the cells were seeded in a 96-well plate, and the previous medium was poured off. 5 mL of DPBS was added to wash the cells, and then removed by a pipette and discarded. Then, 1 mL of trypsin (0.25%) was added, and the plate was placed in a cell culture incubator at 37 °C, 5% CO2 for digestion, and taken out after about 2 to 5 minutes. New corresponding medium was added, and pipetted to resuspend the cells evenly, and the cells were then counted with an automated cell counter. Regarding HUVEC, the medium used was endothelial cell complete medium; regarding UM-UC-3, the medium used was 89 v % EMEM+10 v % fetal bovine serum+1 v % penicillin-streptomycin double anti-body; regarding LNcaP, the medium used was 89 v % RPM11640+10 v % fetal bovine serum+1 v % penicillin-streptomycin double anti-body; and regarding RM1, the medium used was 89 v % DMEM+10 v % fetal bovine serum+1 v % penicillin-streptomycin double anti-body. (2) HUVEC cells were seeded in columns 1 to 11 of a 96-well plate (Corning, Cat. No. 3610) at a density of 2000 cells per well in 100 μL of medium, and the medium free of cell was added to the wells of column 12. The other three types of cells were also seeded, wherein UM-UC-3 and RM-1 cells were seeded at a density of 3000 cells per well, and LNCap cells were seeded at a density of 5000 cells per well. Then, the plate was placed in an incubator at 37° C., 5% CO2 for 24 hours. (3) On the second day, the compounds of the present invention and the reference drug nitroxoline (obtained according to the preparation method disclosed in the prior art) were diluted in gradient (2.5 folds, started at 100 μmol) to obtain 8 dose points (there were a total of 8 columns of wells; the first column of wells had the highest concentration, the concentration decreased in turn, and the last column of wells had the lowest concentration). 10 μL of the compound diluted in gradient was added to the 100 μL of cells in column 1 to column 10 with an 8-channel pipette. 10 μL of the corresponding medium containing 0.33 v % DMSO was added to column 11 and column 12. The plate was incubated in an incubator at 37° C., 5% CO2 for 72 hours (note: column 11 was used as MAX well with cells and no compounds; and column 12 was used as MIN well with no cells and no compounds). (4) After treating with the compounds of the present invention for 72 hours, the cell viability detection reagents in the above CellTiter-Glo® assay kit were added to the 96-well plate at 50 μL per well according to the instructions. The plate was shaken on a shaker in the dark for 5 to 10 minutes, and then the cell activity was determined by a multifunctional microplate reader. Finally, the growth inhibition of the compounds of the present invention on the cells was plotted by XLFIT 5.3 software, and the IC50 values of the compounds of the present invention were calculated.

[2] = tested on: Prostate cancer cell line LNcaP; experiment: Inhibitory activity on cancer cells, CellTiter-Glo viability, LNcaP; details: Homo sapiens, 72 hours treatment
Experimental: as §1

[3] = tested on: Mouse prostate cancer cell line RM1; experiment: Inhibitory activity on cancer cells, CellTiter-Glo viability, RM1; details: 72 hours treatment
Experimental: as §1

[4] = tested on: Bladder cancer cell line UM-UC-3; experiment: Inhibitory activity on cancer cells, CellTiter-Glo viability, UM-UC-3; details: Homo sapiens, UMUC3, 72 hours treatment
Experimental: as §1

[5] = tested on: Acinetobacter baumannii (carbapenem-resistant clinical isolates; ATCC19606); experiment: MIC by micro broth dilution (CLSI), Acinetobacter baumannii; details: Acinetobacter baumannii; for MIC50 / MIC90: ATCC19606, Clinical strain; for MIC50: read-out: MIC50; for MIC90: read-out: MIC90; for MIC: Standard strain ATCC19606, read-out: MIC
How it was run: (§2)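 MIC was read after 20 hours at 35±2° C in air, following CLSI 2019 M100 criteria. Test wells held cation-adjusted Mueller-Hinton broth, compound from 128 to 0.06 mg/L (DMSO-dissolved) and 10^5 CFU/mL final inoculum.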

[6] = tested on: Staphylococcus aureus (methicillin-resistant and sensitive clinical isolates; ATCC29213); experiment: MIC by micro broth dilution (CLSI), Staphylococcus aureus; details: for MIC50 / MIC90: Clinical strain; for MIC50: read-out: MIC50; for MIC90: read-out: MIC90; for MIC: Standard strain ATCC29213, read-out: MIC
How it was run: as §2

[7] = tested on: Escherichia coli (carbapenem-resistant clinical isolate; ATCC25922); experiment: MIC by micro broth dilution (CLSI), Escherichia coli; details: for MIC50 / MIC90: ATCC25922, Clinical strain; for MIC50 / MIC90 / MIC: Escherichia coli; for MIC50: read-out: MIC50; for MIC90: read-out: MIC90; for MIC: Standard strain ATCC25922, read-out: MIC
How it was run: as §2

| SMILES | IC50 [1] [µM] | IC50 [2] [µM] | IC50 [3] [µM] | IC50 [4] [µM] | MIC50 [5] [µg/mL] | MIC90 [5] [µg/mL] | MIC [5] [µg/mL] | MIC50 [6] [µg/mL] | MIC90 [6] [µg/mL] | MIC [6] [µg/mL] | MIC50 [7] [µg/mL] | MIC90 [7] [µg/mL] | MIC [7] [µg/mL] | inhibitory effect against Escherichia coli compared with the reference drug nitroxoline ([7]; MIC comparison) |
| --- | --- | --- | --- | --- | --- | --- | --- | --- | --- | --- | --- | --- | --- | --- |
| COc1c(C2CC2)cnc2c(O)c([N+](=O)[O-])ccc12 [Example 75, 3-cyclopropyl-4-methoxy-7-nitroquinolin-8-ol] | 3.41 | 1.77 | 2.05 | 9.27 | – | – | – | – | – | – | – | – | – | – |
| CCOC(=O)C1CCN(c2ccnc3c(O)c([N+](=O)[O-])cc(F)c23)CC1 [Example 71, Ethyl 1-(5-fluoro-8-hydroxy-7-nitroquinolin-4-yl)piperidine-4-carboxylate] | 2.7 | 1.53 | 2.51 | 6.8 | > 128 | > 128 | > 128 | 2 (≈ 5.5 µM) | 4 (≈ 11 µM) | 8 (≈ 22 µM) | > 128 | > 128 | > 128 | – |
| CCOC(=O)C1CCN(c2ccnc3c(O)c([N+](=O)[O-])cc(Cl)c23)CC1 [Example 46, Ethyl 1-(5-chloro-8-hydroxy-7-nitroquinolin-4-yl)piperidine-4-carboxylate] | 0.56 | 0.88 | 1.86 | 0.96 | > 128 | > 128 | > 128 | 32 (≈ 84.3 µM) | 64 (≈ 169 µM) | 32 (≈ 84.3 µM) | > 128 | > 128 | > 128 | – |
| O=[N+]([O-])c1cc(Cl)c2c(OCC3CC3)ccnc2c1O [Example 53, 5-Chloro-4-(cyclopropylmethoxy)-7-nitroquinolin-8-ol] | 0.59 | 1.08 | 3.06 | 0.86 | 128 (≈ 434 µM) | 128 (≈ 434 µM) | 128 (≈ 434 µM) | 8 (≈ 27.1 µM) | 16 (≈ 54.3 µM) | 16 (≈ 54.3 µM) | 128 (≈ 434 µM) | 128 (≈ 434 µM) | 128 (≈ 434 µM) | – |
| CC(=O)N1CCN(c2ccnc3c(O)c([N+](=O)[O-])cc(Cl)c23)CC1 [Example 33, 4-(5-Chloro-8-hydroxy-7-nitroquinolin-4-yl)-1-acetylpiperazine] | 16.9 | 15 | 18 | 50.5 | > 128 | > 128 | > 128 | 32 (≈ 91.2 µM) | 32 (≈ 91.2 µM) | 32 (≈ 91.2 µM) | > 128 | > 128 | > 128 | – |
| CCC(C)OC(=O)N1CCN(c2ccnc3c(O)c([N+](=O)[O-])cc(Cl)c23)CC1 (stereo not drawn) [Example 57, (1-Methyl)propyl 4-(5-chloro-8-hydroxy-7-nitroquinolin-4-yl)piperazine-1-carboxylate] | 0.47 | 0.55 | 2.35 | 0.49 | – | – | – | – | – | – | – | – | – | – |
| CN(C)CCOc1ccnc2c(O)c([N+](=O)[O-])ccc12 [Example 24, 4-(2-(Dimethylamino)ethoxy)-7-nitroquinolin-8-ol] | > 100 | 49.6 | 53.6 | 48 | 128 (≈ 462 µM) | > 128 | 128 (≈ 462 µM) | 128 (≈ 462 µM) | 128 (≈ 462 µM) | 128 (≈ 462 µM) | 128 (≈ 462 µM) | 128 (≈ 462 µM) | 128 (≈ 462 µM) | – |
| O=[N+]([O-])c1cc(Cl)c2c(C3CC3)ccnc2c1O [Example 49, 5-Chloro-4-cyclopropyl-7-nitroquinolin-8-ol] | 1.59 | 1.04 | 5.32 | 4.07 | – | – | – | – | – | – | – | – | – | – |
| CC(C)OC(=O)N1CCN(c2ccnc3c(O)c([N+](=O)[O-])cc(Cl)c23)CC1 [Example 58, Isopropyl 4-(5-chloro-8-hydroxy-7-nitroquinolin-4-yl)piperazine-1-carboxylate] | 0.68 | 0.89 | 0.91 | 2.55 | – | – | – | – | – | – | – | – | – | – |
| O=[N+]([O-])c1ccc2c(N3CC=CC3)ccnc2c1O [Example 23, 4-(2,5-Dihydro-1H-pyrrolyl)-7-nitroquinolin-8-ol] | > 100 | > 100 | > 100 | > 100 | – | – | – | – | – | – | – | – | – | – |
| O=[N+]([O-])c1ccc2c(-n3ccnc3)ccnc2c1O [Example 15, 4-(1H-Imidazol-1-yl)-7-nitroquinolin-8-ol] | 32.3 | 35.2 | – | 36.2 | > 128 | > 128 | > 128 | 64 (≈ 250 µM) | 128 (≈ 500 µM) | 128 (≈ 500 µM) | 128 (≈ 500 µM) | 128 (≈ 500 µM) | > 128 | – |
| O=[N+]([O-])c1ccc2c(N3CCOCC3)ccnc2c1O [Example 14, 4-Morpholino-7-nitroquinolin-8-ol] | 10.9 | 8.7 | – | 6.1 | 128 (≈ 465 µM) | > 128 | > 128 | 128 (≈ 465 µM) | 128 (≈ 465 µM) | 128 (≈ 465 µM) | 128 (≈ 465 µM) | 128 (≈ 465 µM) | > 128 | – |
| O=[N+]([O-])c1ccc2c(Br)ccnc2c1O [Example 16, 4-Bromo-7-nitroquinolin-8-ol] | 8.1 | 3.9 | – | 8.9 | 8 (≈ 29.7 µM) | 8 (≈ 29.7 µM) | 32 (≈ 119 µM) | 8 (≈ 29.7 µM) | 8 (≈ 29.7 µM) | 8 (≈ 29.7 µM) | 16 (≈ 59.5 µM) | 16 (≈ 59.5 µM) | 32 (≈ 119 µM) | – |
| O=[N+]([O-])c1ccc2c(Cl)ccnc2c1O [Example 12, 4-Chloro-7-nitroquinolin-8-ol] | 7.5 | 4.1 | – | 7.5 | 2 (≈ 8.9 µM) | 4 (≈ 17.8 µM) | 4 (≈ 17.8 µM) | 2 (≈ 8.9 µM) | 2 (≈ 8.9 µM) | 2 (≈ 8.9 µM) | 4 (≈ 17.8 µM) | 4 (≈ 17.8 µM) | 4 (≈ 17.8 µM) | comparable to that of the reference drug nitroxoline |
| O=[N+]([O-])c1cc(Cl)c2c(N3CCC4(CC3)CC4)ccnc2c1O [Example 63, 5-Chloro-7-nitro-4-(6-azaspiro[2.5]octan-6-yl)quinolin-8-ol] | 1.82 | 2.01 | 7.47 | 7.07 | – | – | – | – | – | – | – | – | – | – |
| O=[N+]([O-])c1cc(Cl)c2c(OC3CCCCC3)ccnc2c1O [Example 60, 5-Chloro-4-(cyclohexyloxy)-7-nitroquinolin-8-ol] | 0.7 | 0.64 | 1.13 | 5.82 | – | – | – | – | – | – | – | – | – | – |
| CC1CCCCN1c1ccnc2c(O)c([N+](=O)[O-])ccc12 (stereo not drawn) [Example 20, 4-(2-Methylpiperidinyl)-7-nitroquinolin-8-ol] | 5.6 | 3.33 | 6.8 | 4.38 | – | – | – | – | – | – | – | – | – | – |
| O=[N+]([O-])c1cc(Cl)c2c(F)ccnc2c1O [Example 65, 5-Chloro-4-fluoro-7-nitroquinolin-8-ol] | 9.03 | 13.2 | 21.7 | 11.5 | – | – | – | – | – | – | – | – | – | – |
